Common to all, as to type: functional
Test [1] concerns Mycobacterium tuberculosis. Description: Potentiation of isoniazid-induced antimycobacterial activity against Mycobacterium tuberculosis H37Rv assessed as reduction in isoniazid MIC at 250 uM incubated for 48 hrs by alamar blue staining based analysis.
In test [2] the test system is Mycobacterium tuberculosis. Description: Potentiation of isoniazid-induced antimycobacterial activity against Mycobacterium tuberculosis H37Rv assessed as reduction in isoniazid MIC at 125 uM incubated for 48 hrs by alamar blue staining based analysis. On the technique in general: The colour change of resazurin is a common sign of viable cells or microbes.
Test [3] deals with Staphylococcus aureus. Description: Potentiation of Norfloxacin-induced antibacterial activity against Staphylococcus aureus 1199B overexpressing NorA efflux pump assessed as fold reduction in norfloxacin MIC by microdilution method. (In general: Dilution methods test growth across graded concentrations, often in twofold steps.)
In test [4] the test system is Staphylococcus aureus. The test is described as follows: Potentiation of ethidium bromide-induced antibacterial activity against Staphylococcus aureus 1199B overexpressing NorA efflux pump assessed as fold reduction in ethidium bromide MIC by microdilution method.
Test [5] deals with Staphylococcus aureus. The test is described as follows: Potentiation of ethidium bromide-induced antibacterial activity against Staphylococcus aureus 1199B overexpressing NorA efflux pump assessed as ethidium bromide MIC by microdilution method.
Test [6] relates to Staphylococcus aureus. The test is described as follows: Potentiation of Norfloxacin-induced antibacterial activity against Staphylococcus aureus 1199B overexpressing NorA efflux pump assessed as norfloxacin MIC by microdilution method.
The subject of test [7] is Mycolicibacterium smegmatis. Description: Potentiation of cefotaxime-induced antimycobacterial activity against Mycobacterium smegmatis assessed as cefotaxime MIC at 9 ug/ml (reference value: 128 ug/ml). Particulars: dose 9 µg/ml.
Test [8] deals with Enterococcus faecalis. Description: Antibacterial activity against Enterococcus faecalis ATCC 29212 assessed as growth inhibition incubated for 18 hrs by broth microdilution method.
Test [9] has as its system Pseudomonas aeruginosa. The test is described as follows: Antibacterial activity against Pseudomonas aeruginosa ATCC 27853 assessed as growth inhibition incubated for 18 hrs by broth microdilution method.
Test [10] concerns Escherichia coli. Description: Antibacterial activity against Escherichia coli CCUG assessed as growth inhibition incubated for 18 hrs by broth microdilution method.
For the next test, the system named is Klebsiella pneumoniae. Description: Antibacterial activity against Klebsiella pneumoniae ATCC 13833 assessed as growth inhibition incubated for 18 hrs by broth microdilution method.
The subject of another test is Acinetobacter baumannii. Description: Antibacterial activity against Acinetobacter baumannii ATCC 17978 assessed as growth inhibition incubated for 18 hrs by broth microdilution method.
Test [11] has as its system Staphylococcus epidermidis. The test is described as follows: Antibacterial activity against Staphylococcus epidermidis ATCC 14990 assessed as growth inhibition incubated for 18 hrs by broth microdilution method.
The test system of test [12] is Bacillus subtilis. The test is described as follows: Antibacterial activity against Bacillus subtilis ATCC 6633 assessed as growth inhibition incubated for 18 hrs by broth microdilution method.
Test [13] deals with Staphylococcus aureus. The test is described as follows: Antibacterial activity against Staphylococcus aureus ATCC 25923 assessed as growth inhibition incubated for 18 hrs by broth microdilution method.
The subject of test [14] is Staphylococcus aureus. Description: Antibacterial activity against multidrug-resistant Staphylococcus aureus ATCC 43300 assessed as inhibition of bacterial growth incubated for 24 hrs by microplate reader analysis.
Test [15] has as its system Pseudomonas aeruginosa. Description: Antibacterial activity against Pseudomonas aeruginosa CMCC 10104 assessed as inhibition of bacterial growth incubated for 24 hrs by microplate reader analysis.
Test [16] has as its system Enterococcus faecalis. The test is described as follows: Antibacterial activity against Enterococcus faecalis CMCC 29212 assessed as inhibition of bacterial growth incubated for 24 hrs by microplate reader analysis.
The subject of test [17] is Bacillus subtilis. Description: Antibacterial activity against Bacillus subtilis CMCC 63501 assessed as inhibition of bacterial growth incubated for 24 hrs by microplate reader analysis.
Test [18] relates to Escherichia coli. Description: Antibacterial activity against Escherichia coli CMCC 25922 assessed as inhibition of bacterial growth incubated for 24 hrs by microplate reader analysis.
Test [19] deals with Bacillus subtilis. The test is described as follows: Antibacterial activity against Bacillus subtilis assessed as inhibition of bacterial growth measured after 24 hrs.
In test [20] the test system is Pseudomonas aeruginosa. Description: Antibacterial activity against multidrug-resistant Pseudomonas aeruginosa ATCC BAA-2111 assessed as inhibition of bacterial growth incubated for 24 hrs by microplate reader analysis.
Test [21] has as its system Enterococcus faecalis. Description: Antibacterial activity against Enterococcus faecalis assessed as inhibition of bacterial growth measured after 24 hrs.
Test [22] concerns Pseudomonas aeruginosa. The test is described as follows: Antibacterial activity against Pseudomonas aeruginosa CMCC 27853 assessed as inhibition of bacterial growth incubated for 24 hrs by microplate reader analysis.
For test [23], the system named is Staphylococcus aureus. The test is described as follows: Antibacterial activity against Staphylococcus aureus CMCC 25923 assessed as inhibition of bacterial growth incubated for 24 hrs by microplate reader analysis.
Test [24] relates to Escherichia coli. Description: Antibacterial activity against Escherichia coli CMCC 44568 assessed as inhibition of bacterial growth incubated for 24 hrs by microplate reader analysis.
The next test has as its system Streptococcus mutans. The test is described as follows: Antibacterial activity against Streptococcus mutans BNCC 336931 assessed as inhibition of bacterial growth incubated for 24 hrs by microplate reader analysis.
For test [25], the system named is Staphylococcus aureus. The test is described as follows: Antibacterial activity against Staphylococcus aureus assessed as inhibition of bacterial growth measured after 24 hrs.
Test [26] relates to Staphylococcus aureus. The test is described as follows: Antibacterial activity against Staphylococcus aureus CMCC (B) 26003 assessed as inhibition of bacterial growth incubated for 24 hrs by microplate reader analysis.
Test [27] deals with Staphylococcus aureus. The test is described as follows: Antibacterial activity against multidrug-resistant Staphylococcus aureus ATCC 33591 assessed as inhibition of bacterial growth incubated for 24 hrs by microplate reader analysis.
The test system of test [28] is Mycobacterium tuberculosis. The test is described as follows: Anti-mycobacterial activity against Mycobacterium tuberculosis H37Rv ATCC […] assessed as bacterial growth inhibition by alamar blue assay.
For test [29], the system named is Staphylococcus aureus. The test is described as follows: Antibacterial activity against methicillin-resistant Staphylococcus aureus ATCC 33591 assessed as bacterial growth inhibition by CLSI based broth microdilution method.
Test [30] concerns Staphylococcus aureus. Description: Antibacterial activity against Staphylococcus aureus assessed as bacterial growth inhibition incubated for 24 hrs.
Test [31] deals with Mycobacterium tuberculosis. The test is described as follows: Anti-mycobacterial activity against Mycobacterium tuberculosis H37Rv ATCC 27294 assessed as bacterial growth inhibition incubated for 7 days by resazurin dye based assay. To be noted: H37Rv ATCC 27294, 168 h, time 7 day.
For test [32], the system named is Plasmodium vinckei petteri. Description: Antimalarial activity against Plasmodium vinckei petteri 279BY infected in Swiss mouse assessed as reduction in parasitemia administered orally once daily for 4 consecutive days and measured on day 5. To be noted: 120 h, route po, time 5 day.
In test [33] the test system is Plasmodium vinckei petteri. The test is described as follows: Antimalarial activity against Plasmodium vinckei petteri 279BY infected in Swiss mouse assessed as reduction in parasitemia administered intraperitoneally once daily for 4 consecutive days and measured on day 5. Particulars: 120 h, route ip, time 5 day.
For test [34], the system named is Escherichia coli. Description: Antibacterial activity against Escherichia coli assessed as bacterial growth inhibition incubated for 24 hrs.
Test [35] relates to Mycobacterium tuberculosis. Description: Antibacterial activity against Mycobacterium tuberculosis H37Rv assessed as bacterial growth inhibition by vertical diffusion method.

In brackets after ≈: the same amount, converted by molar mass. Some results are limits rather than exact numbers.

As usually defined, the MIC is the smallest concentration in the dilution series that meets the test's criterion for growth inhibition. For orientation: ED50 means the dose at which the effect has come halfway, by size or by number of responders.

Take `CCCCCCc1ccc(-c2c[nH]c(N)n2)cc1`: the minimal inhibitory concentration (MIC) in test [1] and in [2] was 0.039 µg/mL throughout.

In the case of `Cl.N#Cc1ccc(/C=N/NC(=N)N)cc1`, the figures for the “fold change (FC)” value with Staphylococcus aureus [3] and in the test with Staphylococcus aureus [4] were “<=16” and “<=32”, respectively.

Consider `Cl.N=C(N)N/N=C/c1ccnc2ccccc12`, for which the results for the MIC in the test on Staphylococcus aureus [5] and in the test on Staphylococcus aureus [6] were 1 µg/mL and 8 µg/mL, respectively. In addition, the “fold change (FC)” value is reported as “<=16” in the test on Staphylococcus aureus [3] and “<=32” in the test on Staphylococcus aureus [4].

On to `CCCCCc1ccc(C(=O)Nc2ccc3c(c2)nc(N)n3CCCc2ccccc2)cc1`, for which, in test [7], the MIC was 1 µg/mL.

Take `Cl.NC(N)=N/N=C/c1ccc(Cl)c(Cl)c1`: the “fold change (FC)” value is “<=16” in the test on Staphylococcus aureus [3] and “<=32” in the test on Staphylococcus aureus [4].

On to `N=C(N)NCCCCCCCCN(CCCCCCCCNC(=N)NCC1CC1)C(=O)N(CCCCCCCCNC(=N)N)CCCCCCCCNC(=N)NCC1CC1`, for which the MIC (with Enterococcus faecalis [8]; in the test on Pseudomonas aeruginosa [9]; in the test with Escherichia coli [10]; with Klebsiella pneumoniae; in the test on Acinetobacter baumannii; in test [11]) was 0.5 µg/mL (≈ 0.591 µM) in each case. The minimal inhibitory concentration (MIC) with Bacillus subtilis [12] and in the test on Staphylococcus aureus [13] was 0.5 µg/mL (≈ 0.591 µM) in each case.

Regarding `N=C(N)N/N=C/c1ccc(C#Cc2ccc(Cl)cc2)cc1`, the MIC in the test with Staphylococcus aureus [14], in the test on Pseudomonas aeruginosa [15], in the test with Enterococcus faecalis [16], with Bacillus subtilis [17], with Escherichia coli [18] and with Bacillus subtilis [19] was 0.25 µg/mL (≈ 0.842 µM) in each case. Moreover, the MIC with Pseudomonas aeruginosa [20], in the test on Enterococcus faecalis [21], in the test on Pseudomonas aeruginosa [22], in the test on Staphylococcus aureus [23], with Escherichia coli [24] and with Streptococcus mutans was 0.25 µg/mL (≈ 0.842 µM) each time. In addition, the minimum inhibitory concentration (MIC) with Staphylococcus aureus [25], with Staphylococcus aureus [26] and with Staphylococcus aureus [27] was 0.25 µg/mL (≈ 0.842 µM) in each case.

For `Cc1ccc(-n2nc(C)c3c(-c4c(C)nn(-c5ccccc5)c4Cl)nc(N)nc32)cc1`, the MIC in [28] was determined as 1.2 µg/mL (≈ 2.79 µM).

As to `N=C(N)NC[C@H]1OC(O[C@H]2C(NC(=O)[C@H](O)CCN)C[C@H](N)[C@@H](O[C@H]3O[C@H](CN)[C@@H](O)[C@H](O)[C@H]3O)[C@@H]2O)[C@H](O)[C@@H](N)[C@@H]1O` (stereo not given in full), the minimal inhibitory concentration (MIC) in the test with Staphylococcus aureus [29] was found to be 3.12 µg/mL (≈ 4.99 µM).

As to `Cl.N=C(N)NCCCNC(=O)C(=O)c1cc(Cl)ccc1NC(=O)c1ccc2ccccc2c1`, the MIC with Staphylococcus aureus [30] amounted to 8 µg/mL.

On to `N=C(N)NCCNC(=O)c1cc2c([nH]c3ccccc32)c(-c2ccc(O)cc2)n1`, for which the MIC in [31] turned out to be 27.8 µg/mL (≈ 71.6 µM).

`Cn1oc(=O)n(CCCCCCCCCCCCn2c(=O)on(C)c2=O)c1=N`: the 50% effective dose (ED50) in [32] turned out to be 82 mg/kg; in [33], 4 mg/kg.

As for `Cl.N=C(N)NCCCNC(=O)C(=O)c1cc(Br)ccc1NC(=O)c1ccc2ccccc2c1`, the MIC in the test on Staphylococcus aureus [30] turned out to be 6 µg/mL.

Take `COC(=O)C(CCCCNC(=N)N)NC(=O)C(=O)c1ccccc1NC(=O)c1ccc2ccccc2c1.Cl` (stereo not given): in the test on Escherichia coli [34], the minimal inhibitory concentration (MIC) came to 17 µg/mL.

As for `Cc1nn(-c2ccccc2)c(Cl)c1-c1nc(N)nc2c1c(C)nn2-c1ccc(S(=O)(=O)O)cc1Cl`, in [28], the MIC was determined as 1.2 µg/mL (≈ 2.26 µM).

Consider `Cc1nn(-c2ccccc2)c(Cl)c1-c1nc(N)nc2c1c(C)nn2-c1cccc(Cl)c1`, for which the minimum inhibitory concentration (MIC) in [28] was 1.2 µg/mL (≈ 2.66 µM).

In the case of `N=C(N)Nc1nnc2nccn2n1`, the MIC in [35] worked out at 1.5 µg/mL (≈ 8.42 µM).

The record behind these values is ChEMBL document CHEMBL5149974, “Antimicrobial drugs bearing guanidine moieties: A review” (Eur J Med Chem, 2021).
